Source: patent publication US12662498B2 (priority 2017, dated 2026)

Legend:
[1] = ICH stability study of psilocybin batches (appearance, water content, purity, assay); conditions: accelerated conditions
[2] = Heat cycling slurry maturation of Psilocybin Pattern A in 24 solvents (visual solubility); note: test concentration or dose not given here

CN(C)CCc1c[nH]c2cccc(OP(=O)(O)O)c12 [Polymorph A]
time stable under accelerated stability testing conditions [1]: 12 months
Obs. 20° C., 0.4 ml ([2]; 2-Chlorobutane): Susp.
Obs. 20° C., 0.8 ml ([2]; 2-Chlorobutane): Susp.
Obs. 20° C., 1.2 ml ([2]; 2-Chlorobutane): Susp.
Obs. 50° C. ([2]; 2-Chlorobutane, 1.2 ml): Susp.
Obs. 20° C., 0.4 ml ([2]; 4:1 EtOH/water): Susp.
Obs. 20° C., 0.8 ml ([2]; 4:1 EtOH/water): Susp.
Obs. 20° C., 1.2 ml ([2]; 4:1 EtOH/water): Susp.
Obs. 50° C. ([2]; 4:1 EtOH/water, 1.2 ml): Susp.
Obs. 20° C., 0.4 ml ([2]; 4:1 IPA/water): Susp.
Obs. 20° C., 0.8 ml ([2]; 4:1 IPA/water): Susp.
Obs. 20° C., 1.2 ml ([2]; 4:1 IPA/water): Susp.
Obs. 50° C. ([2]; 4:1 IPA/water, 1.2 ml): Susp.
Obs. 20° C., 0.4 ml ([2]; 4:1 THF/water): Susp.
Obs. 20° C., 0.8 ml ([2]; 4:1 THF/water): Susp.
Obs. 20° C., 1.2 ml ([2]; 4:1 THF/water): Susp.
Obs. 50° C. ([2]; 4:1 THF/water, 1.2 ml): Susp.
Obs. 20° C., 0.4 ml ([2]; Anisole): Susp.
Obs. 20° C., 0.8 ml ([2]; Anisole): Susp.
Obs. 20° C., 1.2 ml ([2]; Anisole): Susp.
Obs. 50° C. ([2]; Anisole, 1.2 ml): Susp.
Obs. 20° C., 0.4 ml ([2]; Benzotrifluoride): Susp.
Obs. 20° C., 0.8 ml ([2]; Benzotrifluoride): Susp.
Obs. 20° C., 1.2 ml ([2]; Benzotrifluoride): Susp.
Obs. 50° C. ([2]; Benzotrifluoride, 1.2 ml): Susp.
Obs. 20° C., 0.4 ml ([2]; CHCl3): Susp.
Obs. 20° C., 0.8 ml ([2]; CHCl3): Susp.
Obs. 20° C., 1.2 ml ([2]; CHCl3): Susp.
Obs. 50° C. ([2]; CHCl3, 1.2 ml): Susp.
Obs. 20° C., 0.4 ml ([2]; CPME): Susp.
Obs. 20° C., 0.8 ml ([2]; CPME): Susp.
Obs. 20° C., 1.2 ml ([2]; CPME): Susp.
Obs. 50° C. ([2]; CPME, 1.2 ml): Susp.
Obs. 20° C., 0.4 ml ([2]; Chlorobenzene): Susp.
Obs. 20° C., 0.8 ml ([2]; Chlorobenzene): Susp.
Obs. 20° C., 1.2 ml ([2]; Chlorobenzene): Susp.
Obs. 50° C. ([2]; Chlorobenzene, 1.2 ml): Susp.
Obs. 20° C., 0.4 ml ([2]; Cyclohexane): Susp.
Obs. 20° C., 0.8 ml ([2]; Cyclohexane): Susp.
Obs. 20° C., 1.2 ml ([2]; Cyclohexane): Susp.
Obs. 50° C. ([2]; Cyclohexane, 1.2 ml): Susp.
Obs. 20° C., 0.4 ml ([2]; EtOAc): Susp.
Obs. 20° C., 0.8 ml ([2]; EtOAc): Susp.
Obs. 20° C., 1.2 ml ([2]; EtOAc): Susp.
Obs. 50° C. ([2]; EtOAc, 1.2 ml): Susp.
Obs. 20° C., 0.4 ml ([2]; EtOH): Susp.
Obs. 20° C., 0.8 ml ([2]; EtOH): Susp.
Obs. 20° C., 1.2 ml ([2]; EtOH): Susp.
Obs. 50° C. ([2]; EtOH, 1.2 ml): Susp.
Obs. 20° C., 0.4 ml ([2]; Heptane): Susp.
Obs. 20° C., 0.8 ml ([2]; Heptane): Susp.
Obs. 20° C., 1.2 ml ([2]; Heptane): Susp.
Obs. 50° C. ([2]; Heptane, 1.2 ml): Susp.
Obs. 20° C., 0.4 ml ([2]; IPA): Susp.
Obs. 20° C., 0.8 ml ([2]; IPA): Susp.
Obs. 20° C., 1.2 ml ([2]; IPA): Susp.
Obs. 50° C. ([2]; IPA, 1.2 ml): Susp.
Obs. 20° C., 0.4 ml ([2]; MEK): Susp.
Obs. 20° C., 0.8 ml ([2]; MEK): Susp.
Obs. 20° C., 1.2 ml ([2]; MEK): Susp.
Obs. 50° C. ([2]; MEK, 1.2 ml): Susp.
Obs. 20° C., 0.4 ml ([2]; MIBK): Susp.
Obs. 20° C., 0.8 ml ([2]; MIBK): Susp.
Obs. 20° C., 1.2 ml ([2]; MIBK): Susp.
Obs. 50° C. ([2]; MIBK, 1.2 ml): Susp.
Obs. 20° C., 0.4 ml ([2]; MeCN): Susp.
Obs. 20° C., 0.8 ml ([2]; MeCN): Susp.
Obs. 20° C., 1.2 ml ([2]; MeCN): Susp.
Obs. 50° C. ([2]; MeCN, 1.2 ml): Susp.
Obs. 20° C., 0.4 ml ([2]; MeOH): Susp.
Obs. 20° C., 0.8 ml ([2]; MeOH): Susp.
Obs. 20° C., 1.2 ml ([2]; MeOH): Susp.
Obs. 50° C. ([2]; MeOH, 1.2 ml): Susp.
Obs. 20° C., 0.4 ml ([2]; Nitromethane): Susp.
Obs. 20° C., 0.8 ml ([2]; Nitromethane): Susp.
Obs. 20° C., 1.2 ml ([2]; Nitromethane): Susp.
Obs. 50° C. ([2]; Nitromethane, 1.2 ml): Susp.
Obs. 20° C., 0.4 ml ([2]; TBME): Susp.
Obs. 20° C., 0.8 ml ([2]; TBME): Susp.
Obs. 20° C., 1.2 ml ([2]; TBME): Susp.
Obs. 50° C. ([2]; TBME, 1.2 ml): Susp.
Obs. 20° C., 0.4 ml ([2]; THF): Susp.
Obs. 20° C., 0.8 ml ([2]; THF): Susp.
Obs. 20° C., 1.2 ml ([2]; THF): Susp.
Obs. 50° C. ([2]; THF, 1.2 ml): Susp.
Obs. 20° C., 0.4 ml ([2]; Toluene): Susp.
Obs. 20° C., 0.8 ml ([2]; Toluene): Susp.
Obs. 20° C., 1.2 ml ([2]; Toluene): Susp.
Obs. 50° C. ([2]; Toluene, 1.2 ml): Susp.
Obs. 20° C., 0.4 ml ([2]; Water): Susp.
Obs. 20° C., 0.8 ml ([2]; Water): Susp.
Obs. 20° C., 1.2 ml ([2]; Water): Susp.
Obs. 50° C. ([2]; Water, 1.2 ml): Solution
Obs. 20° C., 0.4 ml ([2]; iPrOAc): Susp.
Obs. 20° C., 0.8 ml ([2]; iPrOAc): Susp.
Obs. 20° C., 1.2 ml ([2]; iPrOAc): Susp.
Obs. 50° C. ([2]; iPrOAc, 1.2 ml): Susp.
